From patent US20250325675A1, “APTAMER, CONJUGATE, COMPOSITION, METHOD FOR PREPARING SAME, AND USE THEREOF” (priority 2022, published 2025)

Columns and labels:
[1] = tested on: U118MG subcutaneous tumor; assay: In vivo distribution of conjugates with different modifications in U118MG subcutaneous tumor model mice (Experimental Example 6); parameters: species or system NOD-SCID mice; conditions: 3 mg/kg tail vein; 4 h to 24 h after administration
Experimental: U118MG subcutaneous tumor model mice were prepared according to the method described in experimental Example 4.
9 mice were divided into 3 groups (3 mice per group). AP2, AP3 and comparative AP12 solutions were respectively administered to each mouse of each group by tail vein injection. […] The three groups of mice were respectively designated as test group 6A, test group 6B and test group 6C. […] On Day 10 after administration, one mouse of blank control group 6Y and one mouse of test group 6A was respectively euthanized and tumor tissues were taken for fluorescence imaging, and the results are shown in FIG. 5H. In FIGS. 5A-5H, Blank represents blank control group 6Y.

[2] = tested on: U118-MG glioma cells; assay: Flow cytometry: entry of conjugates into U118-MG glioma cells in vitro; assay type: cell-based, human; conditions: 1 h 37°C, yeast tRNA 100 μg/mL, flow cytometry
Experimental: U118MG cells were seeded into a 96-well plate at 5×10^5 cells/well. Conjugate AP1 prepared above and yeast tRNA were respectively formulated into conjugates solution 1A, 1B, 1C, 1D, 1E, 1F, 1G, 1H, and 1I with DMEM medium, and these conjugate solutions 1A-1I comprised yeast tRNA at a final concentration of 100 μg/mL and respectively comprised conjugate AP1 at final concentrations of 5 nM, 10 nM, 20 nM, 40 nM, 60 nM, 80 nM, 100 nM, 150 nM, 200 nM, and […].
Control conjugate comparative AP10 prepared above and yeast tRNA were respectively formulated into conjugates solution 1A′, 1B′, 1C′, 1D′, 1E′, 1F′, 1G′ 1H′, and 1I′ with DMEM medium, and these conjugate solutions 1A′-1I′ comprised yeast tRNA at a final concentration of 100 μg/mL and respectively comprised control conjugate comparative AP10 at final concentrations of 5 nM, 10 nM, 20 nM, 40 nM, 60 nM, 80 nM, 100 nM, 150 nM, 200 nM, and […].
The aforementioned culture wells containing U118MG cells were respectively added with the conjugate solutions 1A-1I above in an amount of 200 μL/well and designated as test group 1A-test group 1I. The aforementioned culture wells containing U118MG cells were respectively added with the conjugate solution 1A′-1I′ above in an amount of 200 μL/well and designated as control group 1A′-control group 1I′. Another culture well containing U118MG cells was added with 200 μL DMEM medium containing yeast tRNA at a final concentration of 100 μg/mL and designated as blank control group 1J. The 96-well plate containing the above test groups and the blank control group were incubated at 37° C. for 1 h in the dark; after incubation, the supernatant of the reaction mixture of each test group and the blank control group was aspirated, and DPBS buffer (purchased from Thermo Fisher) was added to wash the plate 3 times (100 μL each time). After the washing solution was aspirated, each culture well was added with 100 μL DMEM medium to obtain a cell suspension. The supernatant was removed by centrifugation and then 500 μL DPBS buffer was added to re-suspend the cells. Flow cytometry analysis was performed with flow cytometer (BD Biosciences): 10,000 cells in each test group or the blank control group were analyzed, the fluorescence intensity distribution was determined and the mean fluorescence intensity (MFI, a.u.) was calculated. Furthermore, the mean fluorescence intensity corresponding to each final concentration of conjugates is listed in Table 4 below for comparison, and the relative fluorescence difference R is calculated according to the following equation: R=(MFIAP1−MFICAP10)/MFICAP10.
Therein, MFIAP1 represents mean fluorescence intensity of conjugate AP1 in U118-MG glioma cells, and MFICAP10 represents mean fluorescence intensity of comparative AP10 in U118-MG glioma cells.

[3] = tested on: SVGp12 normal astrocytes; assay: High content imaging: entry of conjugates into SVGp12 normal astrocytes; assay type: cell-based, human; conditions: 100 nM, 30 min 37°C
Experimental: (§1) In this experiment, the entry of conjugate AP1 provided by the present disclosure and comparative conjugate comparative AP10 into different cells was observed by a PerkinElmer High Content Imaging system (Operatta).
(§2) U118MG glioma cells, SVGp12 normal astrocytes, T98G human brain glioma cells, U251 human glioma cells, A549 human non-small cell lung cancer cells, MCF-7 human breast cancer cells, and 293T human kidney epithelial cells were all purchased from the Shanghai Cell Bank of Chinese Academy of Sciences. […] The supernatant was aspirated and DPBS buffer (purchased from Thermo Fisher) was added to wash the plate 2 times (100 μL each time).
(§3) Conjugate AP1 prepared above and yeast tRNA were respectively formulated into conjugate solution 2A with DMEM medium, and the conjugate solution 2A comprised yeast tRNA at a final concentration of 100 μg/mL and conjugate AP1 at a final concentration of 100 nM. […]
(§4) Normalization was performed according to the mean fluorescence intensity of control group 2Y, that is, subtracting the mean fluorescence intensity of control group 2Y from the fluorescence intensity of test group 2X before performing imaging.

[4] = tested on: U251 human glioma cells; assay: High content imaging: entry of conjugates into U251 cells; assay type: cell-based; conditions: 100 nM, 30 min 37°C
Experimental: as §1, §2, §3, §4

[5] = tested on: A549 human non-small cell lung cancer cells; assay: High content imaging: entry of conjugates into A549 cells; assay type: cell-based; conditions: 100 nM, 30 min 37°C
Experimental: as §1, §2, §3, §4

[6] = tested on: MCF-7 human breast cancer cells; assay: High content imaging: entry of conjugates into MCF-7 cells; assay type: cell-based; conditions: 100 nM, 30 min 37°C
Experimental: as §1, §2, §3, §4

[7] = tested on: 293T human renal epithelial cells; assay: High content imaging: entry of conjugates into 293T cells; assay type: cell-based; conditions: 100 nM, 30 min 37°C, normal cells
Experimental: as §1, §2, §3, §4

[8] = tested on: U118MG glioma tumor spheres; assay: High content imaging: entry into U118MG tumor spheres; assay type: cell-based, human; conditions: 100 nM, imaging without washing
Experimental: (§5) In this experiment, the entry of conjugate AP1 provided by the present disclosure and comparative conjugate comparative AP10 into U118MG glioma tumor spheres and A549 human non-small cell lung cancer tumor spheres was observed by a PerkinElmer High Content Imaging system (Operatta).
(§6) 80 μL fresh, sterilized and unsolidified 2% agarose was added into the culture wells of a 96-well plate. […] Half of the supernatant was aspirated every 48 h and fresh DMEM medium was added along the wall of the culture wells. After 7 days of culture, the cells were observed under the microscope to confirm that complete cell spheres were obtained, indicating successful tumor sphere cultivation.
(§7) Each culture well was added with AP1 or comparative AP10 according to the method of experimental Example 2, and imaged in a high content imaging system, with the only difference of directly performing imaging after culture without washing and performing imaging according to the measured fluorescence intensity of Cy5.

[9] = tested on: A549 human non-small cell lung cancer tumor spheres; assay: High content imaging: entry into A549 tumor spheres; assay type: cell-based; conditions: 100 nM, imaging without washing
Experimental: as §5, §6, §7

[10] = tested on: hSTAT3 mRNA; assay: hSTAT3 mRNA inhibition by free uptake in PANC-1 cells, qPCR (Experimental Example 18); assay type: cell-based; conditions: PANC1 human pancreatic cancer cells, free uptake 2 μM, RNA extracted after 7 days
Experimental: PANC-1 human pancreatic cancer cells in the logarithmic growth phase were selected and digested (0.25% pancreatic enzyme). The cells were collected, centrifuged to remove the supernatant, and then resuspended in DMEM medium containing 10% FBS to be formulated into cell culture solution with a concentration of 1×10^5 cells/mL. The solutions were mixed thoroughly, seeded into a 24-well plate (with 1 mL/well, i.e. 1×10^5 cells/well).
After respectively culturing the cell solutions in different culture wells of a 24-well plate for 24 h, the supernatant was aspirated and 900 μL DMEM medium containing 10% FBS was added into each well. […]
For each reverse transcription reaction system, 5 μL of the above cDNA-containing solution was taken as the template. By using a SYBR Select Master Mix Kit (purchased from Thermo Fisher Scientific, Cat. No. 4472908), the target gene hSTAT3 and the internal control gene hGAPDH were amplified in a SteponePlus™ Real-Time fluorescence quantitative PCR Thermal Cycler (purchased from Thermo Fisher Scientific) according to the operation method the instruction. […]
For each test group and control group, the above quantitative PCR detection was performed twice.
The fluorescence quantitative data was analyzed by relative quantitative 2^−ΔΔct method, and the calculation method was as follows: […]

CY5-CmsUmsGmGmAmGmUmUmCmAmGmAmCmGmUmGmUmUmGmCmUmCmUmUmCmCmGmAmUmCmsUmsCm [AP3]
fluorescence intensity in vivo / tumor [1]: still show high fluorescence intensity

CY5-UmCmUmAmUmGmGmCmUmGmCmCmGmAmUmCmUmGmGmUmCmUmCmCmAmUmGmUmAmCmGmUm [AP12]
fluorescence intensity in vivo / tumor [1]: still show high fluorescence intensity

CY5-CfCfAGAGUfCfGCfUfGAGAUfUfCfGUfGGCfGCfUfAUfAUf (CCAGAGUCGCUGAGAUUCGUGGCGCUAUAU; listed as RNA, chemistry not fully specified) [comparative AP10, reference compound]
mean fluorescence intensity (MFI) ([2]; conjugate 5 nM): 25.4 a.u. | mean fluorescence intensity (MFI) ([2]; conjugate 10 nM): 67.4 a.u. | mean fluorescence intensity (MFI) ([2]; conjugate 20 nM): 176.4 a.u. | mean fluorescence intensity (MFI) ([2]; conjugate 40 nM): 443.4 a.u. | mean fluorescence intensity (MFI) ([2]; conjugate 60 nM): 666.4 a.u. | mean fluorescence intensity (MFI) ([2]; conjugate 80 nM): 787.4 a.u. | mean fluorescence intensity (MFI) ([2]; conjugate 100 nM): 1167.4 a.u. | mean fluorescence intensity (MFI) ([2]; conjugate 150 nM): 1251.4 a.u. | mean fluorescence intensity (MFI) ([2]; conjugate 200 nM): 1868.4 a.u. | mean fluorescence intensity (MFI) ([2]; conjugate 500 nM): 4029.4 a.u. | Cy5 fluorescence signal in cells [3]: did not show any fluorescence signal | Cy5 fluorescence signal in cells [4]: neither the tumor cells treated with comparative AP10 nor the 293T human renal epithelial cells showed any fluorescence signal | Cy5 fluorescence signal in cells [5]: neither the tumor cells treated with comparative AP10 nor the 293T human renal epithelial cells showed any fluorescence signal | Cy5 fluorescence signal in cells [6]: neither the tumor cells treated with comparative AP10 nor the 293T human renal epithelial cells showed any fluorescence signal | Cy5 fluorescence signal in cells [7]: nor the 293T human renal epithelial cells showed any fluorescence signal | Cy5 fluorescence signal in tumor spheres [8]: only the edge of the comparative AP10-treated tumor spheres showed significantly weak fluorescence signal | Cy5 fluorescence signal in tumor spheres [9]: only the edge of the comparative AP10-treated tumor spheres showed significantly weak fluorescence signal

B1: conjugate 38: siRNA sense strand 5′ terminal linked to 2′-O-cetyl modified aptamer by four propylene phosphate ester groups; Cy5 on antisense strand; SEQ ID NO: 72/48 (conjugate)
sense: CUGGAGUUCAGACGUGUUGCUCUUCCGAUCUCUUCUAGAAAACUGGAUAACGU
antisense: ACGUUAUCCAGUUUUCUAGCC
modifications: cetyl-modified aptamer, propylene phosphate linkers, Cy5, chemistry not fully specified
inhibition rate against hSTAT3 mRNA [10]: 44%

B2: conjugate 37: siRNA sense strand 3′ terminal linked to AP2 delivery group by Spacer18-GfAfUf; Cy5 on antisense strand; SEQ ID NO: 71/48 (conjugate)
sense: CUAGAAAACUGGAUAACGUGAUCUGGAGUUCAGACGUGUUGCUCUUCCGAUCUC
antisense: ACGUUAUCCAGUUUUCUAGCC
modifications: AP2 delivery group, Spacer18 linker, Cy5; misc_feature 19 is linked to Spacer18 at 3' end
inhibition rate against hSTAT3 mRNA [10]: 33%
